This is an account of results in patent US11839613B2, “Pyrimidine derivatives as PGE2 receptor modulators” (IDORSIA PHARMACEUTICALS LTD, priority 2017, dated 2023).

Where only a bound is given, the exact number is not on record here.

Holding throughout (type): cell-based
Experiment [1] addresses PTGER2 (EP2) (Homo sapiens (Human), UniProt P43116). Nature of the experiment: hEP2 b-arrestin assay (PathHunter HEK 293 PTGER2 b-arrestin cells). As to conditions: antagonistic activity, beta-arrestin assay; read-out: hEP2 b-arr IC50. The method, then: Plate is pre-incubated 15 minutes at 37° C. Then five microliters of PGE2 (final conc. 5 μM) are transferred into the assay plate. Plate is incubated 120 minutes at 37° C.
(each concentration is measured in duplicate)

Experiment [2] addresses EP2 (Homo sapiens (Human), UniProt P43116). Nature of the experiment: hEP2 cAMP assay (SF295 glioblastoma cells, HTRF cAMP). As to conditions: antagonistic activity. The source says: (§1) Human tumor cell lines expressing endogenously either EP4 or EP2 are used and cAMP accumulation in cells upon PGE2 stimulation is monitored. SF295 glioblastoma cells express high endogenous EP2 and no EP4, whereas BT549 breast cancer cells, express high endogenous EP4 levels and very low EP2 levels.
(§2) As a detection method for cAMP the HTRF (homogeneous time resolved fluorescence) Cisbio kit (HTRF cAMP dynamic 2 kit 20'000 tests Cisbio Cat. #62AM4PEC) was used, which is based on a competitive immunoassay using a Cryptate-labeled anti-cAMP antibody and d2-labeled cAMP. Native cAMP produced by cells or unlabeled cAMP (for the standard curve) compete with exogenously added d2-labeled cAMP (acceptor) for binding to monoclonal anti-cAMP-Eu3+Cryptate (donor). A FRET signal (Fluorescence Resonance Energy Transfer) is obtained only if the labeled anti-cAMP antibody binds the d2 labelled cAMP, thus the specific signal (i.e. energy transfer) is inversely proportional to the concentration of cAMP in the standard or sample.
(§3) Cells are counted washed and resuspended in assay buffer (AB; HBSS, 20 mM HEPES, 0.2% BSA; 2 mM IBMX).
Plate is pre-incubated 45 minutes at RT. […] Plate is incubated 30 minutes at RT.
(cAMP levels reflect the balance of adenylyl cyclase and phosphodiesterase activity.)

The target in experiment [3] is EP4 (Homo sapiens (Human), UniProt P35408). Nature of the experiment: hEP4 cAMP assay (BT549 breast cancer cells, HTRF cAMP). The note with it: antagonistic activity, PGE2 6 nM.
EP4, sequence (P35408 whole entry): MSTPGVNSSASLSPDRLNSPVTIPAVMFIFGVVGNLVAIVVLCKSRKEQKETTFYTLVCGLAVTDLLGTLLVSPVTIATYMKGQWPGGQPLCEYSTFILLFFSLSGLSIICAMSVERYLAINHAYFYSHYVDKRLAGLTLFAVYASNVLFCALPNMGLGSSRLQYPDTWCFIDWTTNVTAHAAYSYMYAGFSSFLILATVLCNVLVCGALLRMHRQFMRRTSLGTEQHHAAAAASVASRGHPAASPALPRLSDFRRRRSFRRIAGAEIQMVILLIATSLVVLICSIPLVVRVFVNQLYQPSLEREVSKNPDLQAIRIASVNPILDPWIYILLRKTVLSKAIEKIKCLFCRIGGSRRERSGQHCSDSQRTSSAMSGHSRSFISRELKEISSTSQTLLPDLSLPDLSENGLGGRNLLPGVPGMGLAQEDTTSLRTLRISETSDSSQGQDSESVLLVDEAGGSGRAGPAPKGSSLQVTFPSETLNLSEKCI
Description: as §1, §2, §3
Plate is pre-incubated 45 minutes at RT. Subsequently, 2.5 microliters of PGE2 (final conc. 6 nM) are transferred into the assay plate. Plate is incubated 30 minutes at RT.

EP2, sequence (P43116 whole entry): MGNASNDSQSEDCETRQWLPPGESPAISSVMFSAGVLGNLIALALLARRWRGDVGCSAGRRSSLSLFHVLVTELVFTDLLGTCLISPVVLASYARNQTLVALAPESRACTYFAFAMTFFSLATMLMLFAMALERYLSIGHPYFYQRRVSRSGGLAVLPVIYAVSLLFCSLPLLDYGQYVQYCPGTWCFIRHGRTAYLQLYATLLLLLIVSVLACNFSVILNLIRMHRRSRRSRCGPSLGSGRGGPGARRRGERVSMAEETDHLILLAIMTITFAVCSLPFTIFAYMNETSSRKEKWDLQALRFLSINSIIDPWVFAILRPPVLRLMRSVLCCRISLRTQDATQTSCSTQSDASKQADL
PTGER2 (EP2), sequence (P43116 whole entry): as above

In the case of `CCOc1cc(-c2cc(NCCc3cc4c(cc3OC)OCO4)ncn2)ccc1C(=O)O` [Ex 315, 2-Ethoxy-4-{6-[2-(6-methoxy-benzo[1,3]dioxol-5-yl)-ethylamino]-pyrimidin-4-yl}-benzoic acid], the IC50 worked out at 134 nM in experiment [1], 73 nM in experiment [2] and 703 nM in experiment [3].

With `COc1cc2c(cc1CCNc1cc(-c3ccc(C(=O)O)c(OC4CCC4)c3)ncn1)OCO2` [Ex 213, 2-Cyclobutoxy-4-{6-[2-(6-methoxy-benzo[1,3]dioxol-5-yl)-ethylamino]-pyrimidin-4-yl}-benzoic acid], the half-maximal inhibitory concentration (IC50) in experiment [1] is 59 nM; in experiment [2], 46 nM; in experiment [3], 256 nM.

As for `CCOc1cc(-c2cc(NCCc3ccc4ccccc4c3Cl)ncn2)ccc1C(=O)O` [Ex 260], the concentration for half-maximal inhibition (IC50) came to 880 nM in experiment [2] and 404 nM in experiment [3].

On to `CCOc1cc2ccccc2cc1CCNc1cc(-c2ccc(OC(C)(C)C(=O)O)c(OCC)c2)ncn1` [Ex 245], for which the IC50 in experiment [2] is 304 nM; in experiment [3], 358 nM.

For `COc1cc2ccccc2cc1CCNc1cc(-c2cc(OC)c(C(=O)O)c(OC)c2)ncn1` [Ex 300], the IC50 was 312 nM in experiment [2] and 624 nM in experiment [3].

Turning to `CCOc1cc(-c2cc(NCCc3ccc4cc[nH]c4c3)ncn2)ccc1CC(=O)O` [Ex 271], the 50% inhibitory concentration (IC50) came out at 638 nM in experiment [2] and 439 nM in experiment [3].

For the compound `CCOc1cc(-c2cc(NCCc3ccc4ccccc4c3C)ncn2)ccc1-c1noc(O)n1` [Ex 220], the values for the IC50 in experiment [1], in experiment [2] and in experiment [3] were 113 nM, 141 nM and 283 nM, respectively.

With `Cc1cc2c(cc1CCNc1cc(-c3ccc(C(=O)O)c(OC4CCC4)c3)ncn1)OC=CO2` [Ex 288], the concentration for half-maximal inhibition (IC50) in experiment [1] came to 156 nM; in experiment [2], 85 nM; in experiment [3], 523 nM.

`CCOc1cc(-c2cc(NCCc3cc(Cl)c4c(c3)OCCO4)ncn2)ccc1C(=O)O` [Ex 324]: the results for the IC50 in experiment [2] and in experiment [3] were 899 nM and 858 nM, respectively.

For `CCOc1cc(-c2cc(NCCc3c(F)cc4ccccc4c3F)ncn2)ccc1CC(=O)O` [Ex 107], the half-maximal inhibitory concentration (IC50) turned out to be 950 nM in experiment [2] and 76 nM in experiment [3].

`NC(=O)c1ccc(-c2cc(NCCc3ccc4cc[nH]c4c3)ncn2)s1` [Ex 294, 5-{6-[2-(1H-Indol-6-yl)-ethylamino]-pyrimidin-4-yl}-thiophene-2-carboxylic acid amide]: the figures for the IC50 in experiment [2] and in experiment [3] were 786 nM and 561 nM, respectively.

Regarding `O=C(O)c1ccc(-c2cc(NCCc3ccc4c(c3)OCCO4)ncn2)cc1OC1CCC1` [Ex 244], the 50% inhibitory concentration (IC50) is 552 nM in experiment [2] and 356 nM in experiment [3].

Take `CC(C)Oc1cc2ccccc2cc1CCNc1cc(-c2ccc(C(=O)O)c(OC3CCC3)c2)ncn1` [Ex 264]: the IC50 amounted to 11800 nM in experiment [2] and 425 nM in experiment [3].

On to `Cc1c(CCNc2cc(-c3cc(OCCO)c(C(=O)O)s3)ncn2)ccc2ccccc12` [Ex 48], for which the IC50 in experiment [2] was 66 nM; in experiment [3], 22 nM.

Regarding `CCOc1cc(-c2cc(NCCc3cc4ccccc4cc3OC)ncn2)cc(OC)c1C(=O)O` [Ex 282], the IC50 in experiment [2] was found to be 296 nM; in experiment [3] it was 498 nM.

As for `CCOc1cc(-c2cc(NCCc3ccc4ccccc4c3C)ncn2)sc1CC(=O)OC` [Ex 316], the values for the IC50 in experiment [2] and in experiment [3] were 792 nM and 729 nM, respectively.

Consider `CCOc1cc(-c2cc(NCCc3cc4c(cc3OC)OCCO4)ncn2)ccc1OC(C)(C)C(=O)O` [Ex 313], for which the IC50 stood at 273 nM in experiment [2] and 691 nM in experiment [3].

Take `CCSc1cc(-c2cc(NCCc3ccc4sccc4c3)ncn2)ccc1C(=O)O` [Ex 222]: the results for the IC50 in experiment [2] and in experiment [3] were 279 nM and 287 nM, respectively.

Regarding `COc1cc2cc(F)oc2cc1CCNc1cc(-c2ccc(C(=O)O)c(OC3CCC3)c2)ncn1` [Ex 280], the half-inhibitory concentration (IC50) turned out to be 514 nM in experiment [2] and 491 nM in experiment [3].

Consider `CCOc1cc(-c2cc(NCCc3ccc4[nH]ccc4c3)ncn2)ccc1OCC(=O)O` [Ex 225, (2-Ethoxy-4-{6-[2-(1H-indol-5-yl)-ethylamino]-pyrimidin-4-yl}-phenoxy)-acetic acid], for which the values for the IC50 in experiment [2] and in experiment [3] were 923 nM and 289 nM, respectively.

For `Cc1c(Cl)c(CCNc2cc(-c3ccc(C(=O)O)c(OC4CCC4)c3)ncn2)cc2cccnc12` [Ex 263], the concentration for half-maximal inhibition (IC50) was 524 nM in experiment [2] and 425 nM in experiment [3].

Turning to `COc1cc(-c2cc(NCCc3cc4cccnc4cc3F)ncn2)sc1C1(O)COC1` [Ex 283], the 50% inhibitory concentration (IC50) was 618 nM in experiment [2] and 502 nM in experiment [3].

On to `CCOc1cc(-c2cc(NCCc3ccc4cc[nH]c4c3)ncn2)ccc1C(=O)O` [Ex 259, 2-Ethoxy-4-{6-[2-(1H-indol-6-yl)-ethylamino]-pyrimidin-4-yl}-benzoic acid], for which the IC50 in experiment [2] is 302 nM; in experiment [3] it was 394 nM.

With `O=C(O)c1ccc(-c2cc(NCCc3ccc4c(c3)OCCC4)ncn2)cc1OC1CCC1` [Ex 265, 4-[6-(2-Chroman-7-yl-ethylamino)-pyrimidin-4-yl]-2-cyclobutoxy-benzoic acid], the IC50 in experiment [2] worked out at 11400 nM; in experiment [3], 428 nM.

With `COc1cc(-c2cc(NCCc3ccc4sccc4c3)ncn2)cc(OC)c1C(=O)O` [Ex 320, 4-[6-(2-Benzo[b]thiophen-5-yl-ethylamino)-pyrimidin-4-yl]-2,6-dimethoxy-benzoic acid], the half-maximal inhibitory concentration (IC50) in experiment [2] turned out to be 440 nM; in experiment [3] it was 766 nM.

As to `NC(=O)c1ccc(-c2cc(NCCc3c(F)cc4ncccc4c3F)ncn2)s1` [Example 356, 5-{6-[2-(5,7-Difluoro-quinolin-6-yl)-ethylamino]-pyrimidin-4-yl}-thiophene-2-carboxylic acid amide], the figures for the IC50 in experiment [2] and in experiment [3] were 2340 nM and 828 nM, respectively.

As for `CCOc1cc(-c2cc(NCCc3cc4c(cc3OC)N(C)C(=O)CC4)ncn2)sc1C(=O)O` [Ex 210], the 50% inhibitory concentration (IC50) in experiment [2] was 794 nM; in experiment [3], 252 nM.

With `CCOc1cc(-c2cc(NCCc3cc4ccccc4cc3OC(C)C)ncn2)ccc1CC(=O)O` [Ex 258], the figures for the concentration for half-maximal inhibition (IC50) in experiment [2] and in experiment [3] were 3610 nM and 390 nM, respectively.

On to `CCOc1cc(-c2cc(NCCc3cc4ccccc4cc3Cl)ncn2)ccc1OCC(=O)O` [Ex 247], for which the results for the IC50 in experiment [2] and in experiment [3] were 797 nM and 365 nM, respectively.

With `Cc1c(CCNc2cc(-c3ccc(C(=O)O)c(OCCO)c3)ncn2)ccc2ccccc12` [Ex 234], the concentration for half-maximal inhibition (IC50) in experiment [2] was 113 nM; in experiment [3], 325 nM.

Take `CCOc1cc(-c2cc(NCCc3cc4c(cnn4C)cc3OC)ncn2)ccc1OCC(=O)O` [Ex 298]: the IC50 in experiment [2] was 716 nM; in experiment [3] it was 613 nM.

For the compound `CCOc1cc(-c2cc(NCCc3c(F)cc4ncccc4c3F)ncn2)ccc1C(=O)O` [Ex 304], the IC50 in experiment [2] was 408 nM; in experiment [3], 652 nM.

On to `CCOc1cc(-c2cc(NCCc3ccc4c(c3)OCCC4)ncn2)ccc1C(=O)O` [Ex 309, 4-[6-(2-Chroman-7-yl-ethylamino)-pyrimidin-4-yl]-2-ethoxy-benzoic acid], for which the half-maximal inhibitory concentration (IC50) in experiment [2] was greater than 27700 nM; in experiment [3], 677 nM.

Turning to `CCOc1cc(-c2cc(NCCc3cc4cccnc4c(F)c3Cl)ncn2)ccc1OCC(=O)O` [Ex 301], the IC50 in experiment [2] came out at 425 nM; in experiment [3], 626 nM.

Consider `c1nc(NCCc2ccc3cc[nH]c3c2)cc(-c2ccc3cc[nH]c3c2)n1` [Ex 267, [2-(1H-Indol-6-yl)-ethyl]-[6-(1H-indol-6-yl)-pyrimidin-4-yl]-amine], for which the results for the IC50 in experiment [2] and in experiment [3] were 306 nM and 431 nM, respectively.

One may read the IC50 as the concentration needed to halve the response being measured.
